{"source": "patent US20060134197A1", "about": "“Method of reducing unpleasant taste and/or unpleasant odor” (priority 2002, published 2006)", "key": {"[1]": {"assay": "Panel test of lowering iron taste and/or smell of aqueous bivalent iron ion solution", "design": "key to Effect on lowering iron taste and/or smell: “Not effective (symbol “−”)” meaning of that the test aqueous solution showed no difference in iron taste and/or smell from that the control aqueous solution; “Slightly effective (symbol “+”)”, the test aqueous solution showes weaker iron taste and/or smell than the control aqueous solution but the deference was not significant; “Effective (symbol “++”)”, the test aqueous solution showed a slight iron taste and/or smell but it was significantly weaker than that of the control aqueous solution; “Strongly effective (symbol “+++”)”, the test aqueous solution showed almost no iron taste and/or smell", "settings": "for Effect on lowering iron taste and/or smell: 5 mg bivalent iron per 100 ml, 12 panels; for Concentration effective on lowering unpleasant taste and/or smell of aqueous iron ion solution: to the total weight of the aqueous solution, dry solid basis", "procedure": "To confirm the effect of various saccharides on inhibiting taste and/or smell of bivalent iron ion, the following experiment was carried out. An aqueous solution containing bivalent iron ion was prepared by dissolving 0.05556 part by weight of ammonium ferric citrate (iron content of about 18%), and 0.1 part by weight of ascorbic acid in 100 parts by weight of deionized water. Test aqueous solutions containing 5 mg of bivalent iron per 100 ml of water and 0.5, 1.0, 1.5, 2.0 or 5.0% of saccharide selected from sucrose, maltose (hydrous crystalline maltose commercialized by Hayashibara Biochemical Laboratories, Inc., Okayama, Japan, purify 99.0% or more), α,α-trehalose (hydrous crystalline α,α-trehalose commercialized by Hayashibara Biochemical Laboratories, Inc., Okayama, Japan, purity 99.0% or more), α-glucosyl α,α-trehalose (hydrous crystalline α-glucosyl α,α-trehalose prepared in Experiment B-1 of Japanese Patent Publication (Kokai) No. 291,986/1995, purity 99.0% or more), and […] (powdery α-maltosyl α,α-trehalose prepared in Example 5 described following, purity 98.1%) were prepared by admixing the above aqueous solution containing bivalent iron with an equal volume of a pre-prepared aqueous solution containing any one of the above saccharides at a concentration of 1.0, 2.0, 3.0, 4.0 or 10.0%, on a dry solid basis. As a control, an aqueous solution was prepared by admixing the aqueous solution containing bivalent iron ion with an equal volume of warter instead of the aqueous saccharide solution.\nThe effect on lowering iron taste and/or smell, namely unpleasant taste and/or smell of iron ion existing in a test aqueous solution at a concentration of 5 mg per 100 ml was judged by a panel test using 12 panels. […] In the judgement for each test aqueous solution, ten or more of 12 panels answered the same judgement."}, "[2]": {"assay": "Inhibiting the production of hydrogen sulfide from L-cysteine due to heat-decomposition", "settings": "2.5 g L-cysteine hydrochloride and 5 g saccharide in 50 ml; 80° C. for 15 minutes; 100 minus relative value, control defined as 100", "source_text": "Two and half grams of precisely weighted L-cysteine hydrochloride (special reagent grade) and on a dry solid basis 5 g of a precisely measured saccharide sample; i.e. hydrous crystalline α,α-trehalose (reagent grade, purity 99.0% or more, commercialized by Hayashibara Biochemical Laboratories, Inc., Okayama, Japan), α-maltosyl α,α-trehalose prepared in the following Example 5 (purity 98.1%), or a reagent grade maltotetraose (purity 97.0% or more, commercialized by Hayashibara Biochemical Laboratories, Inc., Okayama, Japan); were placed in a 50-ml volume measuring flask and dissolved in deionized water to give a final volume of 50 ml. As a control, 2.5 g of precisely measured L-cysteine hydrochloride (special reagent grade) was dissolved in deionized water to give a final volume of 50 ml. Five ml of each sample was place into a 20-ml volume vial, sealed with a butyl gum cap, and kept at 80° C. for 15 minutes in an incubator. Hydrogen sulfide contained in 10 ml of the resulting headspace gas was measured by “GASTECH No. 4 LT”, a hydrogen sulfide detector commercialized by GL Science Corporation, under an aspiration time of one minute. The resulting value of the production of hydrogen sulfide of each test sample was compared with the value of control defined as 100 to calculate the relative value of the production of hydrogen sulfide. And then, the relative rate of inhibiting the production of hydrogen sulfide was calculated by 100 minus the relative value."}, "[3]": {"assay": "Separately carried panel test of smell of cocoa samples", "settings": "all of nine panels"}}, "data": [{"molecule": "OC[C@H]1O[C@@](CO)(O[C@H]2O[C@H](CO)[C@@H](O)[C@H](O)[C@H]2O)[C@@H](O)[C@@H]1O", "note": "[Sucrose, sucrose]", "values": [{"measurement": "Effect on lowering iron taste and/or smell", "setting": "[1]; saccharide 0.5%", "result": "−"}, {"measurement": "Effect on lowering iron taste and/or smell", "setting": "[1]; saccharide 1.0%", "result": "−"}, {"measurement": "Effect on lowering iron taste and/or smell", "setting": "[1]; saccharide 1.5%", "result": "−"}, {"measurement": "Effect on lowering iron taste and/or smell", "setting": "[1]; saccharide 2.0%", "result": "−"}, {"measurement": "Effect on lowering iron taste and/or smell", "setting": "[1]; saccharide 5.0%", "result": "−"}, {"measurement": "Concentration effective on lowering unpleasant taste and/or smell of aqueous iron ion solution", "setting": "[1]", "result": "not effective"}]}, {"molecule": "OC[C@H]1O[C@H](O[C@H]2O[C@H](CO)[C@@H](O)[C@H](O)[C@H]2O)[C@H](O)[C@@H](O)[C@@H]1O", "note": "[α,α-Trehalose, α,α-trehalose]", "values": [{"measurement": "Effect on lowering iron taste and/or smell", "setting": "[1]; saccharide 0.5%", "result": "−"}, {"measurement": "Effect on lowering iron taste and/or smell", "setting": "[1]; saccharide 1.0%", "result": "−"}, {"measurement": "Effect on lowering iron taste and/or smell", "setting": "[1]; saccharide 1.5%", "result": "+"}, {"measurement": "Effect on lowering iron taste and/or smell", "setting": "[1]; saccharide 2.0%", "result": "+"}, {"measurement": "Effect on lowering iron taste and/or smell", "setting": "[1]; saccharide 5.0%", "result": "++"}, {"measurement": "Concentration effective on lowering unpleasant taste and/or smell of aqueous iron ion solution", "setting": "[1]", "result": "≥ 1.5", "unit": "%"}, {"measurement": "Relative rate of inhibiting the production of hydrogen sulfide", "setting": "[2]", "result": 52}, {"measurement": "Smell of cocoa sample judged by panels", "setting": "[3]", "result": "favorite smell"}]}]}
